Results taken from ChEMBL document CHEMBL1154779, “Synthesis and adrenolytic activity of 1-(1H-indol-4-yloxy)-3-(2-(2-methoxy phenoxy)ethylamino)propan-2-ol analogs and its enantiomers. Part 2” (Eur J Med Chem, 2009).

Columns and labels:
Rattus norvegicus [1] = assay: Effect on heart rate in anesthetized Wistar rat assessed as heart beats per min at 1 mg/kg, iv after 1 min by electrocardiography; format: functional
Rattus norvegicus [2] = assay: Effect on heart rate in anesthetized Wistar rat assessed as heart beats per min at 1 mg/kg, iv after 5 mins by electrocardiography; format: functional
Rattus norvegicus [3] = assay: Antiarrhythmic activity in Wistar rat assessed as inhibition of adrenaline-induced premature ventricular beats at 1 mg/kg, iv administered 15 mins before adrenaline challenge measured after 15 mins by electrocardiography; format: functional; settings: Heart
Rattus norvegicus [4] = assay: Effect on heart rate in anesthetized Wistar rat assessed as P-Q intervals time at 1 mg/kg, iv after 1 min by electrocardiography; format: functional
Rattus norvegicus [5] = assay: Effect on heart rate in anesthetized Wistar rat assessed as QRS complex time at 1 mg/kg, iv after 1 min by electrocardiography; format: functional
Rattus norvegicus [6] = assay: Effect on heart rate in anesthetized Wistar rat assessed as QRS complex time at 1 mg/kg, iv after 5 mins by electrocardiography; format: functional
Rattus norvegicus [7] = assay: Effect on heart rate in anesthetized Wistar rat assessed as QRS complex time at 1 mg/kg, iv after 15 mins by electrocardiography; format: functional
Rattus norvegicus [8] = assay: Effect on heart rate in anesthetized Wistar rat assessed as Q-T intervals time at 1 mg/kg, iv after 1 min by electrocardiography; format: functional
Rattus norvegicus [9] = assay: Effect on heart rate in anesthetized Wistar rat assessed as Q-T intervals time at 1 mg/kg, iv after 5 mins by electrocardiography; format: functional
Rattus norvegicus [10] = assay: Effect on heart rate in anesthetized Wistar rat assessed as Q-T intervals time at 1 mg/kg, iv after 15 mins by electrocardiography; format: functional
Rattus norvegicus [11] = assay: Effect on heart rate in anesthetized Wistar rat assessed as heart beats per min at 1 mg/kg, iv after 15 mins by electrocardiography; format: functional
[12] = Displacement of [3H]CGP12177 from beta-1 adrenergic receptor in Wistar rat cerebral cortex membrane by liquid scintillation counting; format: tissue-based
Rattus norvegicus [13] = assay: Effect on heart rate in anesthetized Wistar rat assessed as P-Q intervals time at 1 mg/kg, iv after 5 mins by electrocardiography; format: functional
Rattus norvegicus [14] = assay: Effect on heart rate in anesthetized Wistar rat assessed as P-Q intervals time at 1 mg/kg, iv after 15 mins by electrocardiography; format: functional

Ki [12] | Compound | Activity (Rattus norvegicus [1]) | Activity (Rattus norvegicus [2]) | ED50 (Rattus norvegicus [3]) | Activity (Rattus norvegicus [4]) | Activity (Rattus norvegicus [5]) | Activity (Rattus norvegicus [6]) | Activity (Rattus norvegicus [7]) | Activity (Rattus norvegicus [8]) | Activity (Rattus norvegicus [9]) | Activity (Rattus norvegicus [10]) | Activity (Rattus norvegicus [11]) | Activity (Rattus norvegicus [13]) | Activity (Rattus norvegicus [14])
– | COc1ccccc1OCCNCC(O)COc1cccc2[nH]c3ccccc3c12 (stereo not drawn) [CARVEDILOL] | 345.2 bpm | 340.3 bpm | 0.25 mg/kg | 50 ms | – | – | – | – | – | – | – | – | –
3 nM | COc1ccccc1OCCNCC(O)COc1cccc2[nH]ccc12 (racemic) | 298.7 bpm | 294.5 bpm | 0.34 mg/kg | 47.2 ms | 28.4 ms | 24.9 ms | 26.9 ms | 69.2 ms | 69 ms | 72.8 ms | 287.3 bpm | 48.1 ms | 46.2 ms
